According to PubChem BioAssay AID1259407 (Chemical Carcinogenesis Research Information System (CCRIS), 2018):
The source made the active and inactive calls. How the calls were made is not given here.

Test system: CCRIS mutagenicity, Ames/micronucleus/aberration tests
Experiment: CCRIS mutagenicity studies

Measured: mutagenic call

O=C(O)CN(CCN(CC(=O)O)CC(=O)O)CC(=O)O
active: Test System: MOUSE LYMPHOMA, Strain/Indicator: L5178Y (TK+/TK-), Metabolic Activation: NONE, Method: SUSPENSION/PLATE active; positive
inactive: Test System: AMES SALMONELLA TYPHIMURIUM, Strain/Indicator: TA1535, Metabolic Activation: HAMSTER, LIVER, S-9, AROCLOR 1254 (30%), Method: PREINCUBATION inactive; negative | Test System: AMES SALMONELLA TYPHIMURIUM, Strain/Indicator: TA1535, Metabolic Activation: HAMSTER, LIVER, S-9, AROCLOR 1254, Method: STANDARD PLATE inactive; negative | Test System: AMES SALMONELLA TYPHIMURIUM, Strain/Indicator: TA1535, Metabolic Activation: NONE, Method: PREINCUBATION inactive; negative | Test System: AMES SALMONELLA TYPHIMURIUM, Strain/Indicator: TA1535, Metabolic Activation: NONE, Method: STANDARD PLATE inactive; negative | Test System: AMES SALMONELLA TYPHIMURIUM, Strain/Indicator: TA1535, Metabolic Activation: RAT LIVER S-9, PHENOBARBITAL AND BETA-NAPHTHOFLAVONE, Method: PREINCUBATION inactive; negative | Test System: AMES SALMONELLA TYPHIMURIUM, Strain/Indicator: TA1535, Metabolic Activation: RAT, LIVER, S-9, AROCLOR 1254 (10%), Method: PREINCUBATION inactive; negative | Test System: AMES SALMONELLA TYPHIMURIUM, Strain/Indicator: TA1535, Metabolic Activation: RAT, LIVER, S-9, AROCLOR 1254 (30%), Method: PREINCUBATION inactive; negative | Test System: AMES SALMONELLA TYPHIMURIUM, Strain/Indicator: TA1535, Metabolic Activation: RAT, LIVER, S-9, AROCLOR 1254, Method: STANDARD PLATE inactive; negative | Test System: AMES SALMONELLA TYPHIMURIUM, Strain/Indicator: TA1537, Metabolic Activation: HAMSTER, LIVER, S-9, AROCLOR 1254, Method: STANDARD PLATE inactive; negative | Test System: AMES SALMONELLA TYPHIMURIUM, Strain/Indicator: TA1537, Metabolic Activation: NONE, Method: PREINCUBATION inactive; negative | Test System: AMES SALMONELLA TYPHIMURIUM, Strain/Indicator: TA1537, Metabolic Activation: NONE, Method: STANDARD PLATE inactive; negative | Test System: AMES SALMONELLA TYPHIMURIUM, Strain/Indicator: TA1537, Metabolic Activation: RAT LIVER S-9, PHENOBARBITAL AND BETA-NAPHTHOFLAVONE, Method: PREINCUBATION inactive; negative | Test System: AMES SALMONELLA TYPHIMURIUM, Strain/Indicator: TA1537, Metabolic Activation: RAT, LIVER, S-9, AROCLOR 1254, Method: STANDARD PLATE inactive; negative | Test System: AMES SALMONELLA TYPHIMURIUM, Strain/Indicator: TA1538, Metabolic Activation: HAMSTER, LIVER, S-9, AROCLOR 1254, Method: STANDARD PLATE inactive; negative | Test System: AMES SALMONELLA TYPHIMURIUM, Strain/Indicator: TA1538, Metabolic Activation: NONE, Method: STANDARD PLATE inactive; negative | Test System: AMES SALMONELLA TYPHIMURIUM, Strain/Indicator: TA1538, Metabolic Activation: RAT, LIVER, S-9, AROCLOR 1254, Method: STANDARD PLATE inactive; negative | Test System: E. COLI, Strain/Indicator: WP2 UVRA, Metabolic Activation: HAMSTER, LIVER, S-9, AROCLOR 1254, Method: STANDARD PLATE inactive; negative | Test System: E. COLI, Strain/Indicator: WP2 UVRA, Metabolic Activation: HAMSTER, LIVER, S-9, Method: STANDARD PLATE inactive; negative | Test System: E. COLI, Strain/Indicator: WP2 UVRA, Metabolic Activation: MOUSE, LIVER, S-9, AROCLOR 1254, Method: STANDARD PLATE inactive; negative | Test System: E. COLI, Strain/Indicator: WP2 UVRA, Metabolic Activation: MOUSE, LIVER, S-9, Method: STANDARD PLATE inactive; negative | Test System: E. COLI, Strain/Indicator: WP2 UVRA, Metabolic Activation: NONE, Method: STANDARD PLATE inactive; negative | Test System: E. COLI, Strain/Indicator: WP2 UVRA, Metabolic Activation: RAT, LIVER, S-9, AROCLOR 1254, Method: STANDARD PLATE inactive; negative | Test System: E. COLI, Strain/Indicator: WP2 UVRA, Metabolic Activation: RAT, LIVER, S-9, Method: STANDARD PLATE inactive; negative | Test System: E.COLI, Strain/Indicator: WP2UVRA/PKM101, Metabolic Activation: NONE, Method: PREINCUBATION inactive; negative | Test System: E.COLI, Strain/Indicator: WP2UVRA/PKM101, Metabolic Activation: RAT LIVER S-9, PHENOBARBITAL AND BETA-NAPHTHOFLAVONE, Method: PREINCUBATION inactive; negative | Test System: E.COLI, Strain/Indicator: WP2UVRA, Metabolic Activation: NONE, Method: PREINCUBATION inactive; negative | Test System: E.COLI, Strain/Indicator: WP2UVRA, Metabolic Activation: RAT LIVER S-9, PHENOBARBITAL AND BETA-NAPHTHOFLAVONE, Method: PREINCUBATION inactive; negative | Test System: Mouse lymphoma, Strain/Indicator: L5178Y (tk+/tk-), Metabolic Activation: None, Method: Suspension/plate inactive; negative | Test System: Mouse lymphoma, Strain/Indicator: L5178Y (tk+/tk-), Metabolic Activation: Rat, Liver, S-9, Aroclor 1254, Method: Suspension/plate inactive; negative
